Results taken from BindingDB's records for doi:10.1016/j.bioorg.2016.08.009 (China Pharmaceutical University, 2016).
pIC50: −log10 of the molar value.

Target: T1, Bromodomain-containing protein 4 [44-168] (Human, UniProt O60885)
T1 construct: 44-168
Assay: BRD4-BD1 Binding Assay
Conditions: 25 °C
Protocol: 11 compounds were evaluated against BRD4-BD1 in vitro with compound 28a as the reference compound. BRD4 (44-168 aa) was bought from Active Motif. After preparing 1× assay buffer (modified HEPES Buffer), target compounds were transferred to assay plate by Echo, and the final concentration of DMSO solution was 0.1%. Then the preparation of protein solution and substrate solution in 1× assay buffer was performed. After that, 5 µL of protein solution was transferred to assay plate and incubated at room temperature for 15 min. The protein concentration was 5 nM. Then 5 µL of substrate solution was added to each well to start reaction with an incubation period for 60 min at room temperature. Finally, 15 µL acceptor and donor solution were added, followed by another incubation period for 60 min at room temperature under subdued light.

| Structure (SMILES) | pIC50 |
| --- | --- |
| Cc1noc(C)c1-c1ccc2c(c1)N(Cc1ccccc1)[C@H](Cc1ccccc1)C(=O)N2 [(R)-3,4-dibenzyl-6-(3,5-dimethylisoxazol-4-yl)-3,4-dihydroquinoxalin-2(1H)-one (5j)] | 6.82 |
| Cc1noc(C)c1-c1ccc2c(c1)N(C1CCCC1)[C@H](C)C(=O)N2 [4(R)-4-cyclopentyl-6-(3,5-dimethylisoxazol-4-yl)-3-methyl-3,4-dihydroquinoxalin 2(1H)-one (5] | 6.43 |
| Cc1noc(C)c1-c1ccc2c(c1)N(Cc1ccccc1)C(CO)C(=O)N2 [8(R)-4-benzyl-6-(3,5-dimethylisoxazol-4-yl)-3-(hydroxymethyl)-3,4-dihydroquinoxalin-2(1H)-one (5h)] | 6.19 |
| COc1ccc(CN2c3cc(-c4c(C)noc4C)ccc3NC(=O)C2C)cc1 [2(R)-6-(3,5-dimethylisoxazol-4-yl)-4-(4-methoxybenzyl)-3-methyl-3,4-dihydroquinoxalin-2(1H)-one (5b)] | 6.80 |
| Cc1noc(C)c1-c1ccc2c(c1)N(Cc1ccc(Cl)cc1)CC(=O)N2 [4-(4-Chlorobenzyl)-6-(3,5-dimethylisoxazol-4-yl)-3,4-dihydroquinoxalin-2(1H)-one (5k)] | 6.30 |
| CC[C@@H]1C(=O)Nc2ccc(-c3c(C)noc3C)cc2N1Cc1ccccc1 [(R)-4-benzyl-6-(3,5-dimethylisoxazol-4-yl)-3-ethyl-3,4-dihydroquinoxalin-2(1H)-one (5i)] | 7.14 |
| COc1ccc(CN2c3cc(-c4c(C)noc4C)ccc3N(C)C(=O)[C@H]2C)cc1 [(R)-6-(3,5-dimethylisoxazol-4-yl)-4-(4-methoxybenzyl)-1,3-dimethyl-3,4-dihydroquinoxalin-2(1H)-one (8)] | 6.66 |
